According to patent US10328029B2, “Pharmaceutical composition” (Cycle Pharmaceuticals, priority 2014, dated 2019):
“Also recorded” adds a separate entry of the source.

What was measured:
Format in all cases: physicochemical
[1] = Process stability of nitisinone in acetone, in water and on drying (HPLC purity)
Experimental: It is a requirement of GMP manufacturing that the final recrystallisation includes a filtration through a polishing filter to remove particulates, and so the GMP process would involve filtration of the hot acetone solution. This means that it is likely that the solution of Nitisinone in acetone at 45° C. could be held at elevated temperature for a prolonged period of time. The stability of stage 1 at 45° C. was tested over a 6 hour period to confirm that the Nitisinone would not degrade under these conditions (Table 4). […] Therefore, acetone could be used in the hot filtration step of the GMP process.
On scale-up, drying from water can often take much longer than on lab scale and could potentially result in degradation of the product, especially with a product that could potentially be prone to hydrolysis. Following filtration of Nitisinone from the final recrystallisation, the filter-cake was washed with water to remove the residual mother liquors. Due to its high solubility in acetone and other organic solvents, a solvent wash was not appropriate as high yield losses would likely be incurred. A water wash also helped remove residual inorganics. Drying studies were therefore carried out to determine the stability of the recrystallised material and try to ensure that there would be no unexpected degradation during the drying phase of the scale-up manufacture (Table 5).
Two separate batches were heated over a 60 hour period with purity and KF values taken (entries 1-10). […] A sample of Nitisinone was suspended in water and heated at 40° C. with no vacuum for 60 hours (entries 11-13), to simulate poor drying. […] A second sample was wetted each morning and dried under vacuum overnight to study the effect of repeatedly wetting and drying the sample (entries 14-19).

[2] = Excipient compatibility: nitisinone mixed with fillers/lubricants, stored at 40° C./75% RH, cyclised impurity by HPLC
Experimental: In order to identify suitable excipients to develop a temperature stable formulation, 4 standard fillers and 5 lubricants were mixed with nitisinone and stored under accelerated conditions for 1 week and 3 weeks. 10 preparations for each excipient were prepared by weighing approximately 10 mg of nitisinone and 500 mg of the excipient into a glass vial and mixing together by gentle swirling. To 5 lots of preparations, 50 μl of water was added to wet the sample. For a control, 10 preparations of the drug substance were prepared by weighing approximately 10 mg nitisinone into a suitable glass vial and to 5 lots of preparations, 50 μl of water was added to wet the sample.
HPLC analysis was used to quantify the relative amount of the cyclised impurity (RRT 0.7) for each formulation at each time point (Tables 7 and 8).
(§1) In the foregoing examples, the HPLC conditions were as follows: […]

[3] = API stability study of nitisinone under long-term and accelerated storage (HPLC)
Experimental: Data provided by the stability testing programme was conducted with the substance under investigation stored in the actual packaging used for storage and distribution. This was to determine if the substance remained compliant with the ICH specification criteria when tested over the period of its shelf life plus one year.
A sample of approximately 150 g of substance was used for the testing programme, with individual samples being approximately 7 g in size. The test was designed to simulate the product package, i.e. the sample was packed in a polythene bag, sealed and then placed inside another polythene bag liner. The sample was then held in a fibreboard cask with a fibreboard lid.
The sample was stored in an incubator maintained at 25° C.±2° C./60%±5% relative humidity (RH), and 40° C.±2° C./75%±5% RH.
After testing of an initial sample, a sample was tested at certain time intervals (Table 6), i.e. monthly (0 m, 1 m, 2 m, etc.).
There was no decrease in purity and the cyclised impurity remained below the identification threshold (0.10%) throughout the stability testing (measured by HPLC).
as §1

O=C1CCCC(=O)C1C(=O)c1ccc(C(F)(F)F)cc1[N+](=O)[O-] [Nitisinone, 2-[2-nitro-4-(trifluoromethyl)benzoyl] cyclohexane-1,3-dione]
stability of stage 1 nitisinone in acetone (purity, in words) ([1]; acetone, 45° C., over a 6 hour period): No loss of purity was observed
stability of Nitisinone in water (purity, in words) ([1]; suspended in water, heated at 40° C., no vacuum, 60 hours): No loss of purity was observed
stability of recrystallised Nitisinone to extended drying (purity, in words) ([1]; two batches heated over a 60 hour period): little to no loss in purity
Cyclised Impurity - RRT 0.7 ([2]; 1 week, Dry): 0.02 norm %
Cyclised Impurity - RRT 0.7 ([2]; 1 week, Wet (50 μl water)): 0.07 norm %
Cyclised Impurity - RRT 0.7 ([2]; 3 weeks, Dry): 0.13 norm %
Cyclised Impurity - RRT 0.7 ([2]; 3 weeks, Wet (50 μl water)): 0.20 norm %
Cyclised Impurity - RRT 0.7 ([2]; Initial, about 10 mg nitisinone + 500 mg excipient): 0.01 norm %
API stability with respect to cyclised impurity (in words) ([3]; 25° C./60% RH and 40° C./75% RH, listed as API): no formation of the aforementioned cyclised impurity was observed; also recorded: no deviation from specification
Stability of API over time ([3]; 25° C./60% RH, 0 m): 99.90% w/w
Stability of API over time ([3]; 25° C./60% RH, 1 m): 99.87% w/w
Stability of API over time ([3]; 25° C./60% RH, 2 m): 99.88% w/w
Stability of API over time ([3]; 25° C./60% RH, 3 m): 99.91% w/w
Stability of API over time ([3]; 25° C./60% RH, 6 m): 99.91% w/w
Stability of API over time ([3]; 40° C./75% RH, 0 m): 99.90% w/w
Stability of API over time ([3]; 40° C./75% RH, 1 m): 99.89% w/w
Stability of API over time ([3]; 40° C./75% RH, 2 m): 99.88% w/w
Stability of API over time ([3]; 40° C./75% RH, 3 m): 99.92% w/w
Stability of API over time ([3]; 40° C./75% RH, 6 m): 99.96% w/w
